The target in the test is T1, human ML1B receptor (Homo sapiens, UniProt P49286).
T1 construct: host or cells: NIH 3T3 cells, stably transfected; membrane homogenates
T1 sequence (P49286 1-362): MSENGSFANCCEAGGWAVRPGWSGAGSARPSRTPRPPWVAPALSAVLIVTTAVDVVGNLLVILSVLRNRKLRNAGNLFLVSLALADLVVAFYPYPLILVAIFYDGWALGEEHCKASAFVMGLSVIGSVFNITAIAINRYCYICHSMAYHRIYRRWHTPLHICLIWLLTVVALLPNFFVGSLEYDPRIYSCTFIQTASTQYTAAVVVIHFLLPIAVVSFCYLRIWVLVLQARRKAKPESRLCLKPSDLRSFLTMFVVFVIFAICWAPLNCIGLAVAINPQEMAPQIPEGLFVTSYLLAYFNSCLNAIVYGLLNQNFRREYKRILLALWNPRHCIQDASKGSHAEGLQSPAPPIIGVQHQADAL
Nature of the test: Measurement of binding to melatonergic receptors (2-[125I]-iodomelatonin, membranes of transfected NIH 3T3 cells). The following applies: 2-[125I]-Iodomelatonin 200 pM, 37 °C for 1 hour, NIH 3T3 cells stably transfected with the human ML1B receptor; read-out: Melatonin Binding. As for the experimental part:
The melatonergic binding affinities of various compounds of Formula I were determined by the method of Reppert, S. M., Weaver, D. R., and Ebisawa, R. (Neuron, Volume 13, 1177-1185, 1994). The assays were incubated at 37 °C for 1 hour, and the reaction was terminated by filtration. The filters were washed with wash buffer. […] The reagents, membrane and other techniques used in the melatonergic binding assays are more fully described below: • 1. Reagents: • (a) 50 mM Tris buffer containing 12.5 mM MgCl2, and 2mM EDTA, pH 7.4 at 37 °C. • (b) Wash buffer: 20 mM Tris base containing 2 mM MgCl2. pH 7.4 at room temperature. • (c) Melatonin (10^-5 M final concentration). • (d) 2-[^125I]-Iodomelatonin, 200 pM final concentration Source: NEN • 2. Membrane preparation: NIH 3T3 cells stably transfected with the human ML1B receptor were obtained from S.M. Reppert and maintained. Cells were pelleted when confluent. The supernatant was discarded and the pellets frozen. For preparing membrane homogenates, the pellets are thawed on ice and resuspended in TME buffer, Tris base, MgCl2, EDTA (pH 7.4 at 37 °C ), supplemented with aprotinin, leupeptin, and […]. The cells were then homogenized and centrifuged. The resulting pellet was resuspended with a Dounce homogenizer in TME and frozen. At assay, a small aliquot was thawed on ice and resuspended in TME buffer. […] These compounds are considered active.
Consider `CCNC(=O)N1CCN(C2CCc3cc(F)c(OC)cc32)CC1` (stereo not shown) [N-Ethyl-4-(5-fluoro-6-methoxy-indan-1-yl)piperazine-1-carboxamide], for which the IC50 fell in the range of 0.01 to 0.1 µM. Turning to `COc1ccc2c(c1)C(N1CCN(C(C)=O)CC1)CC2` (stereo not shown) [1-Acetyl-4-(6-methoxy-indan-1-yl)piperazine], the IC50 lay within 0.1 to 0.25 µM. For `COc1ccc2c(c1)C(N1CCN(C(=O)c3ccsc3)CC1)CC2` (single isomer, unassigned; (-)) [(-)-4-(6-Methoxy-indan-1-yl)-1-[(3-thienyl)carbonyl]piperazine], the IC50 was under 0.01 µM. Take `CCC(=O)C(=O)N1CCN(C2CCc3ccc(OC)cc32)CC1` (single isomer, unassigned; (-)) [(-)-4-(6-Methoxy-indan-1-yl)-1-(2-oxo-butanoyl)piperazine]: the IC50 was 0.01 to 0.1 µM. Consider `CCC(=O)N1CCN(C2CCc3ccc(OC)cc32)CC1` (stereo not shown) [4-(6-Methoxy-indan-1-yl)-1-propanoylpiperazine], for which the IC50 fell in the range of 0.01 to 0.1 µM. Regarding `COc1ccc2c(c1)C(N1CCN(C(=O)C=C(C)C)CC1)CC2` (single isomer, unassigned; (-)) [(-)-1-[(2,2-Dimethyl-ethenyl)carbonyl]-4-(6-methoxy-indan-1-yl)piperazine], the IC50 lay within 0.01 to 0.1 µM.

With `CCNC(=O)N1CCN(C2CCc3ccc(OCC)cc32)CC1` (stereo not shown) [N-Ethyl-4-(6-ethoxy-indan-1-yl)piperazine-1-carboxamide], the IC50 is 0.01 to 0.1 µM.

Turning to `CCC(C)(C)C(=O)N1CCN(C2CCc3ccc(OC)cc32)CC1` (single isomer, unassigned; (-)) [(-)-1-(2,2-Dimethyl-butanoyl)-4-(6-methoxy-indan-1-yl)piperazine], the IC50 was in the range of 0.01 to 0.1 µM.

Consider `C=CC(=O)N1CCN(C2CCc3ccc(OC)cc32)CC1` (stereo not shown) [1-(Ethenylcarbonyl)-4-(6-methoxy-indan-1-yl)piperazine], for which the IC50 fell in the range of 0.01 to 0.1 µM.

As to `CCCNC(=O)N1CCN(C2CCc3ccc(OC)cc32)CC1` (stereo not shown) [N-(n-Propyl)-4-(6-methoxy-indan-1-yl)piperazine-1-carboxamide], the IC50 was in the range of 0.01 to 0.1 µM. Turning to `C=C(C)C(=O)N1CCN(C2CCc3ccc(OC)cc32)CC1` (stereo not shown) [1-[(1-Methyl-ethenyl)carbonyl]-4-(6-methoxy-indan-1-yl)piperazine], the IC50 was under 0.01 µM. As to `COc1ccc2c(c1)C(N1CCN(C(=O)c3ccccc3Cl)CC1)CC2` (single isomer, unassigned; (-)) [(-)-1-(2-Chlorobenzoyl)-4-(6-methoxy-indan-1-yl)piperazine], the IC50 lay in the range of 0.1 to 0.25 µM. Regarding `CCc1ccc2c(c1)C(N1CCN(C(=O)C(C)C)CC1)CC2` (stereo not shown) [4-(6-Ethyl-indan-1-yl)-1-(2-methylpropanoyl)piperazine], the IC50 lay in the range of 0.1 to 0.25 µM. Next, `COc1ccc2c(c1)C(N1CCN(C(=O)N(C)C)CC1)CC2` (stereo not shown) [N,N-Dimethyl-4-(6-methoxy-indan-1-yl)piperazine-1-carboxamide]: 0.01 to 0.1 µM; `COc1ccc2c(c1)C(N1CCCN(C(=O)C(C)C)CC1)CC2` (stereo not shown) [4-(6-Methoxy-indan-1-yl)-1-(2-methyl-propanoyl)homopiperazine]: 0.01 to 0.1 µM; `CNC(=O)N1CCN(C2CCc3cc(F)c(OC)cc32)CC1` (stereo not shown) [N-Methyl-4-(5-fluoro-6-methoxy-indan-1-yl)piperazine-1-carboxamide]: 0.01 to 0.1 µM. Next, `COCC(=O)N1CCN(C2CCc3ccc(OC)cc32)CC1` (stereo not shown) [1-(Methoxyacetyl)-4-(6-methoxy-indan-1-yl)piperazine]: 0.01 to 0.1 µM; `CNC(=O)N1CCN(C2CCCc3ccc(OC)cc32)CC1` (stereo not shown) [N-Methyl-4-(7-methoxy-tetralin-1-yl)piperazine-1-carboxamide]: 0.01 to 0.1 µM.

For `COc1ccc2c(c1)C(N1CCN(C(=O)c3ccccc3)CC1)CC2` (single isomer, unassigned; (-)) [(-)-1-(Benzoyl)-4-(6-methoxy-indan-1-yl)piperazine], the IC50 is 0.1 to 0.25 µM. Turning to `CCc1ccc2c(c1)C(N1CCN(C(=O)C3CC3)CC1)CC2` (stereo not shown) [1-(Cyclopropylcarbonyl)-4-(6-ethyl-indan-1-yl)piperazine], the IC50 was in the range of 0.1 to 0.25 µM. Under `CCCC(=O)N1CCN(C2CCCc3ccc(OC)cc32)CC1` (stereo not shown) [1-(1-Butanoyl)-4-(7-methoxy-tetralin-1-yl)piperazine] stands 0.01 to 0.1 µM. Next, `COc1cc2c(cc1F)CCC2N1CCN(C(=O)C(C)C)CC1` (stereo not shown) [4-(5-Fluoro-6-methoxy-indan-1-yl)-1-(2-methylpropanoyl)piperazine]: 0.01 to 0.1 µM; `COc1ccc2c(c1)C(N1CCN(C(=O)c3csnn3)CC1)CC2` (single isomer, unassigned; (-)) [(-)-4-(6-Methoxy-indan-1-yl)-1-[(1,2,3-thiadiazol-4-yl)carbonyl]-piperazine]: 0.01 to 0.1 µM; `COc1ccc2c(c1)C(N1CCN(C(=O)c3sccc3Br)CC1)CC2` (single isomer, unassigned; (-)) [(-)1-[(3-Bromothien-2-yl)carbonyl]-4-(6-Methoxy-indan-1-yl)piperazine]: under 0.01 µM. Consider `CCNC(=O)N1CCN(C2CCc3ccc(OC)cc32)CC1` (single isomer, unassigned; (-)) [(-)-N-Ethyl-4-(6-methoxy-indan-1-yl)piperazine-1-carboxamide], for which the IC50 was under 0.01 µM. Consider `COc1ccc2c(c1)C(N1CCN(C(=O)c3c[nH]c4ccccc34)CC1)CC2` (single isomer, unassigned; (-)) [(-)-1-[(1H-indol-3-yl)carbonyl]-4-(6-methoxy-indan-1-yl)piperazine], for which the IC50 was in the range of 0.1 to 0.25 µM. As for `COc1ccc2c(c1)C(N1CCN(C(=O)c3cccn3C)CC1)CC2` (single isomer, unassigned; (-)) [(-)-4-(6-Methoxy-indan-1-yl)-1-[(1-methyl-pyrrol-2-yl)carbonyl]piperazine], the IC50 was under 0.01 µM. Turning to `COc1ccc2c(c1)C(N1CCN(C(=O)c3ccc[nH]3)CC1)CC2` (single isomer, unassigned; (-)) [(-)-4-(6-Methoxy-indan-1-yl)-1-[(1H-pyrrol-2-yl)carbonyl]-piperazine], the IC50 lay within 0.01 to 0.1 µM.

In the case of `COc1ccc2c(c1)C(N1CCN(C(=O)c3ccco3)CC1)CC2` (stereo not shown) [1-[(2-Furanyl)carbonyl]-4-(6-methoxy-indan-1-yl)piperazine], the IC50 was under 0.01 µM. `CNC(=O)N1CCN(C2CCc3ccc(OC)cc32)CC1` (stereo not shown) [N-Methyl-4-(6-methoxy-indan-1-yl)piperazine-1-carboxamide]: the IC50 was under 0.01 µM. With `COc1ccc2c(c1)C(N1CCN(C(=O)NC3CC3)CC1)CC2` (stereo not shown) [N-Cyclopropyl-4-(6-methoxy-indan-1-yl)piperazine-1-carboxamide], the IC50 is under 0.01 µM. Regarding `COc1ccc2c(c1)C(N1CCN(C(=O)C3(C)CCCCC3)CC1)CC2` (single isomer, unassigned; (-)) [(-)-1-[(1-Methylcyclohexyl)carbonyl]-4-(6-methoxy-indan-1-yl)piperazine], the IC50 was in the range of 0.1 to 0.25 µM.

Turning to `CCC(C)C(=O)N1CCN(C2CCc3ccc(OC)cc32)CC1` (stereo not shown) [4-(6-Methoxy-indan-1-yl)-1-(2-methyl-butanoyl)piperazine], the IC50 lay within 0.01 to 0.1 µM. Take `CCCCCCCCCOc1ccc2c(c1)C(N1CCN(C(=O)NCC)CC1)CC2` (stereo not shown) [N-Ethyl-4-(6-nonyloxy-indan-1-yl)piperazine-1-carboxamide]: the IC50 was in the range of 0.01 to 0.1 µM. Turning to `C=CCCCCCCCCC(=O)N1CCN(C2CCc3ccc(OC)cc32)CC1` (single isomer, unassigned; (-)) [(-)-4-(6-Methoxy-indan-1-yl)-1-(10-undecenoyl)piperazine], the IC50 was 0.1 to 0.25 µM. For `O=C(C1CC1)N1CCN(C2CCc3ccccc32)CC1` (stereo not shown) [1-(Cyclopropylcarbonyl)-4-(indan-1-yl)piperazine], the IC50 was 0.1 to 0.25 µM.

For the molecule `COc1ccc2c(c1)C(N1CCN(C(=O)c3ccccc3O)CC1)CC2` (single isomer, unassigned; (-)) [(-)-1-(2-Hydroxybenzoyl)-4-(6-methoxy-indan-1-yl)piperazine], the IC50 was under 0.01 µM. Under `CC(=O)NCCc1c(Cc2ccccc2)[nH]c2ccccc12` [Luzindole, reference compound] stands 0.1 to 0.25 µM; under `COc1ccc2c(c1)C(N1CCN(C(=O)c3ccc(Br)o3)CC1)CC2` (single isomer, unassigned; (-)) [(-)-1-[(5-Bromo-furan-2-yl)carbonyl]-4-(6-methoxy-indan-1-yl)piperazine], 0.01 to 0.1 µM; under `COc1ccc2c(c1)C(N1CCN(C(=O)c3sccc3Cl)CC1)CC2` (single isomer, unassigned; (-)) [(-)-1-[(3-Chlorothien-2-yl)carbonyl]-4-(6-methoxy-indan-1-yl)-1-piperazine], under 0.01 µM.

The values are drawn from EP0745597A2, “Novel melatonergic indanyl piperazines or homopiperazines” (BRISTOL-MYERS SQUIBB COMPANY, priority 1995, dated 1996).
